Tests used:
[1] = target: T1, AF/FA GTP sensor (mAmetrine 1.1 and E. coli FeoB-cpYFP fusion) 11A variant 12, P12G, GNSGKTT (SEQ ID NO: 7) (Escherichia coli, UniProt P33650, P12G); assay: GTP binding analysis, fluorescence titration, sensor 12
T1 construct: modified pET32, His-tag/NiNTA, E. coli BL21(DE3)
Method: (§1) Expression and purification: The FA/AF11A protein construct in a modified pET32 vector was used to transform BL21 (DE3) cells. Protein expression was induced with IPTG at a final concentration of 1 mM when the cell OD600 reached 0.6-0.8. Cells were grown for a further 12-14 hrs at 30° C. overnight. Cells were harvested in the morning, suspended in 50 mM TrisHCl, pH 8.3, 2 mM NaCl, 0.1% (v/v) Tween-20, 10 mM imidazole, 1 mM PMSF (lysis buffer), and lysed by sonication. Cell debris was removed by spinning at 17000 rpm for 30 minutes at 4° C. in a Sorvall RC-5C centrifuge equipped with a SS-34 rotor. The lysate, which is bright yellow, was applied to a NiNTA column equilibrated with the same lysis buffer. The loaded NiNTA column was washed with 5 volumes of the lysis buffer followed by 2-volumes of 50 mM TrisHCl, pH8.3, 400 mM NaCl, 50 mM imidazole. Then the protein was eluted in 2 volumes of 50 mM TrisHCl, pH 7.5, 100 mM NaCl, 300 mM imidazole. […] Protein concentration was determined with a BCA assay-kit from Invitrogen using bovine serum albumin for the calibration curve.
(§2) Fluorescent emission spectra of FA/AF11A were obtained at ˜1 μM in binding buffer and 3.0 ml in a quartz cuvette. […] Titrations with GTP, GDP, and ATP were carried out in a BioTeK plate reader on 96-well fluorescence plates from Whatman. […]

[2] = target: T2, AF/FA GTP sensor (mAmetrine 1.1 and E. coli FeoB-cpYFP fusion) 11A variant 1214, P12G+S14A, GNAGKTT (SEQ ID NO: 8) (Escherichia coli, UniProt P33650, P12G/S14A); assay: GTP binding analysis, fluorescence titration, sensor 1214
T2 construct: modified pET32, His-tag/NiNTA, E. coli BL21(DE3)
Method: as §1, §2

[3] = target: T3, AF/FA GTP sensor (mAmetrine 1.1 and E. coli FeoB-cpYFP fusion) 11A variant 1217, GNSGKST (SEQ ID NO: 9) (Escherichia coli, UniProt P33650, P12G/T17S); assay: GTP binding analysis, fluorescence titration, sensor 1217
T3 construct: modified pET32, His-tag/NiNTA, E. coli BL21(DE3)
Method: as §1, §2

[4] = target: T4, AF/FA GTP sensor (mAmetrine 1.1 and E. coli FeoB-cpYFP fusion) 11A variant Triple, GNAGKST (SEQ ID NO: 10) (Escherichia coli, UniProt P33650, P12G/S14A/T17S); assay: GTP binding analysis, fluorescence titration, sensor Triple
T4 construct: modified pET32, His-tag/NiNTA, E. coli BL21(DE3)
Method: as §1, §2

[5] = tested on: FeoB, G-protein domain of FeoB protein from Escherichia coli, SEQ ID NO:3; conditions: cited from earlier work
[6] = tested on: HEK293 cells; assay: In vivo validation: ratiometric imaging of transfected HEK293 cells with or without MPA; format: cell-based; conditions: 20 μM MPA, HEK293 cells with AF-Triple sensor
Method: (§3) AF/FA GTP sensors were subcloned into a pGW1 mammalian cell expression vector with a cytomegalovirus (CMV) promoter. HEK293 cells were transfected with the plasmid DNA using the GenJet (SignaGen) transfection reagent according to the manufacturer's instructions. Cells were allowed to grow for ˜24 hrs before being treated with mycophenolic acid (MPA), which inhibits GTP synthesis. Cells were imaged 20 hrs after drug administration. All cell cultures were carried out with DMEM containing 10% FBS and penicillin/streptomycin and grown at 37° C. in an atmosphere with 5% CO2. Passage number of cells was less than 30 for all experiments.
(§4) Imaging: Cells were imaged in a LabTek 8-chamber 1.5 coverslip-bottom culture-cum-imaging wells. Nikon Eclipse inverted epifluorescence microscope with Sedat Quad 89000 (Chroma Tech) filter along with Sutter instruments automated filter wheel controls was used for all imaging purposes. To ensure adequate signal, 2×2 binning was used. […]
(§5) Images were obtained individually without using the Nikon NIS software ratiometric collection mode. All image quantitative analyses were carried out with the public domain ImageJ (http://rsbweb.nih.gov/ij/) in conjunction with MS Excel and Origin 7. […] Then the ratios of the two intensities were calculated along with the relevant statistics.

[7] = tested on: HEK293 cells transfected with AF-AAA GTP sensor; assay: MPA treatment of HEK293 cells expressing AF-AAA sensor, ratiometric imaging; format: cell-based; conditions: 20 μM MPA, 20 hrs; GTP-insensitive control sensor
Method: as §3, §4, §5

[8] = tested on: HEK293 cells transfected with AF-Triple GTP sensor; assay: MPA treatment of HEK293 cells expressing AF-Triple sensor, ratiometric imaging; format: cell-based; conditions: 20 μM MPA
Method: as §3, §4, §5

[9] = target: T5, 5a5a-GTP sensor (E. coli FeoB-cpYFP fusion), 5a5a-WT, SEQ ID NO:14 (Escherichia coli, UniProt P33650, E42P/INS38[…]); assay: Effective dissociation constant (Keff) determination, 5a5a-WT; format: binding; conditions: FIG. 7 and FIG. 8
T5 construct: made in house
Source text: DNA encoding a cpYFP was inserted into the DNA encoding residues 35-40 of the FeoB G-protein domain (residues 1-260). Six insertion sites—spaced one codon apart—and 4 combinations of linker lengths between the N- and C-termini of the cpYFP and FeoB genes were used to construct 24 different fusion proteins. Nomenclature followed the form “FY1a-1a”, were the number designates the cpYFP insertion site, with “1” corresponding to insertion after FeoB residue 35 and “6” to insertion after residue 40, and where an “a” after the number indicates the presence of a ser-ala-gly or gly-thr linker at, respectively, the N- or C-terminus of the cpYFP.
The fluorescence from the GTP insensitive protein provided a way to normalize the GTP-sensitive fluorescent signal. […] The ratio of the fluorescence at these two excitation wavelengths is therefore internally normalized for changes in sensor expression levels. In addition, using a single FP provides certain advantages over a 2-FP sensor: (1.) A single FP sensor still generates a ratiometric signal because the binding of GTP causes a […] in fluorescence when excited at longer wavelengths (˜500 nm) but a […] in when excited at shorter (˜400 nm) wavelengths. […] (3.) The change in fluorescence ratio varies from 2-6 fold, depending on pH. […]

Nc1nc2c(ncn2[C@@H]2O[C@H](COP(=O)(O)OP(=O)(O)O)[C@@H](O)[C@H]2O)c(=O)[nH]1 [GDP]
Kd [1]: 382 µM
Kd [2]: 525 µM
Kd [3]: ~650 µM
Kd [4]: ~1000 µM
rate of GDP release ([5]; 35° C., too fast to measure by stop-flow methods, estimated): > 1000 s⁻¹

Nc1nc2c(ncn2[C@@H]2O[C@H](COP(=O)(O)OP(=O)(O)OP(=O)(O)O)[C@@H](O)[C@H]2O)c(=O)[nH]1 [GTP, guanosine triphosphate]
Kd [1]: 85 µM
Kd [2]: 177 µM
Kd [3]: 275 µM
Kd [4]: 517 µM
off-rate (GTP) ([5]; 35° C.): 12 s⁻¹
on-rate for GTP ([5]; 35° C.): 800000 M⁻¹ s⁻¹
rate of GTP hydrolysis [5]: 0.0015 s⁻¹
rate of GTP hydrolysis, fold slower than the rate of GTP release ([5]; ratio): about 5000 fold

COc1c(C)c2c(c(O)c1C/C=C(\C)CCC(=O)O)C(=O)OC2 [MPA, mycophenolic acid]
cpYFP (green) signal of cells vs untreated [6]: brighter green hue
effect of MPA treatment on ratiometric signal [7]: no effect
effect of MPA treatment on ratiometric signal (distribution of ratio and average value) ([8]; 20 hrs, p-value of 0.005): distinct difference in the distribution of the ratio as well as the average value
GTP-sensitive signal (cpYFP green) after MPA treatment ([8]; signal inversely related to GTP concentration): brighter green hue than those untreated

Nc1nc2c(ncn2[C@H]2C[C@H](O)[C@@H](COP(=O)(O)OP(=O)(O)OP(=O)(O)O)O2)c(=O)[nH]1 [dGTP]
binding of dGTP relative to GTP [9]: as well as, if not slightly better than GTP itself

From US20150135343A1, “GTP Sensors” (The Board of Regents of the University of Texas System, priority 2012, published 2015)
